Assay results reported in US12178791B2, “Haloallylamine sulfone derivative inhibitors of lysyl oxidases and uses thereof” (Syntara Limited, priority 2018, dated 2024).
“Also recorded” adds a separate entry of the source. Structures can show the parent of a compound that is named as a salt.

What was measured:
[1] = test system: CCl4 hepatic fibrosis / 4t1 metastasis; experiment: CCl4 induced liver fibrosis with orthotopic 4t1 breast cancer cells (fibrosis associated metastasis); assay type: in vivo, BALB/c mice; conditions: 20 mg/kg daily ip
Procedure: Hepatic fibrosis was induced by treated of BALB/c mice twice weekly with 1 mg/kg carbon tetrachloride (CCl4) for a period of 8 wks.

[2] = test system: kidney fibrosis (UUO); experiment: Unilateral ureteral obstruction (UUO) model of acute kidney fibrosis; assay type: in vivo, mice; conditions: 10 mg/kg daily orally, 14 days
Procedure: A 14-day unilateral ureteric obstruction (UUO) model of acute kidney fibrosis in mice was conducted to mimic the different stages of obstructive nephropathy leading to tubulointerstitial fibrosis in an accelerated manner UUO surgery was performed by ligation of the left ureter and induced decrease of left kidney thickness and atrophy (indicated by a significant decrease in kidney weight and ratio of kidney/body weight when compared to the contralateral side) as well as a significant increase in kidney fibrosis. Treatment groups received Compound 33 (10 mg/kg daily) orally for the duration of the study. Compound 33 increased kidney weight and thickness and reduced the area of fibrosis as measured by Picrosirius Red (FIG. 9). Captopril (˜32 mg/kg/day in drinking water) was used as a positive control.

NC/C=C(\F)CS(=O)(=O)c1cccc2cccnc12 [Compound 33, (Z)-3-fluoro-4-(quinolin-8-ylsulfonyl)but-2-en-1-amine dihydrochloride]
collagen cross-links in the liver [1]: significantly reduced
primary tumor growth or collagen cross-links (primary tumor) [1]: No differences
liver fibrosis ([1]; 8 wks CCl4): significantly reduced
metastatic load in the liver ([1]; dihydrochloride): reduce; also recorded: significantly reduced
area of fibrosis as measured by Picrosirius Red [2]: reduced
kidney weight and thickness [2]: increased
